Reference: patent US12534514B2, “Biological and synthetic molecules inhibiting respiratory syncytial virus infection” (Fraunhofer-Gesellschaft zur Förderung der angewandten …, priority 2019, dated 2026)
Square brackets hold non-standard residues; d marks the D form. Tyr(3,5-I2) = N[C@@H](Cc1cc(I)c(O)c(I)c1)C(=O)O; Chg = N[C@H](C(=O)O)C1CCCCC1; Cpa = not defined here

Legend:
[1] = tested on: RSV (ATCC VR-26—Long strain); assay: RSV plaque reduction assay on human epithelial cells (HEp-2); format: cell-based
Procedure: FIG. 1: Scheme of the used inhibition experiments. RSV-plaque reduction assay on human epithelial cells (HEp-2). HEp-2 cells were seeded in 96-well plate 24 h prior to infection (left). Next day, cells were infected with RSV (middle, white arrow). Simultaneously, peptides at concentrations of 20 μM were added to the cells (middle, black arrow). The inhibitory activity was determined 48 post infection by counting viral plaques after immunocytochemical staining using RSV-specific monoclonal antibody (right, black-checked arrow).
The designed peptides were synthesized and screened for their inhibitory activity against RSV in a cell culture-based plaque reduction assay as illustrated in FIG. 1. In detail, Anti-RSV activity was assessed in plaque reduction assay as follows: HEp-2 cells were seeded in a 96-well plate 24 h prior to infection. […] The inhibitory activity was determined 48 h post infection by counting viral plaques after immunocytochemical staining using RSV-specific monoclonal antibody.
Anti-RSV activity was assessed in plaque reduction assay. […] The inhibitory activity was determined 48 h post infection by counting viral plaques after immunocytochemical staining using RSV-specific antibody.
In detail, anti-RSV activity was assessed in plaque reduction assay. […] Viral plaques were counted after immunocytochemical staining using RSV-specific antibody at 48 h after infection. […]

[2] = tested on: active RSV; assay: ELISA binding of DNA-peptide construct to RSV; details: peptides coupled to DNA; FIG. 6B
Source text: FIG. 6: Binding of novel DNA-Peptide construct to RSV. […] The single compounds are not in a representative scale. TMB=3,3′,5,5′-Tetramethylbenzidine, HRP=Horseradish peroxidase. […] “Only Anti-RSV antibody” and “Anti-RSV antibody+RSV” represent internal ELISA controls and lack components described in FIG. 6A. The other three samples have all components described in FIG. 6A. Each bar results from the mean values of triplicates±SD.
Binding of newly developed peptides 6 (Ac-[Chg][Cpa]VSTT[Tyr3,5-I2]LPHYFDN-NH2) and 12 (Ac-[Chg][Nle][Chg]STTYLPHYFDN-NH2) to active RSV was verified by enzyme-linked immunosorbent assay (FIG. 6).
FIG. 6A illustrates the scheme of the used ELISA. It has to be noted that the single compounds are not in a representative scale. […] Unspecific binding of RSV and/or RSV-antibody to neutravidin was excluded by using the two other controls.

Substance | inhibition of infection with RSV on human epithelial cells ([1]; concentration of 20 μM, RSV Long, 48 h post infection, FIG. 3B) | inhibition of infection with RSV on human epithelial cells (screen of truncated peptides, FIG. 2) ([1]; peptides at 20 μM added simultaneously with RSV, plaques counted 48 h post infection) | binding to active RSV (ELISA) [2]
LVVSTTYLPHYFDN (Ac-LVVSTTYLPHYFDN-NH2) | > 50% | able to inhibit infection with RSV | 
Ac-[Chg][Nle][Chg]STTYLPHYFDN-NH2 (XXXSTTYLPHYFDN; HELM PEPTIDE1{[ac].[O=C([C@@H](N[*:1])C1CCCCC1)[*:2]].[Nle].[O=C([C@@H](N[*:1])C1CCCCC1)[*:2]].S.T.T.Y.L.P.H.Y.F.D.N.[am]}$$$$V2.0; SMILES CCCC[C@H](NC(=O)[C@@H](NC(C)=O)C1CCCCC1)C(=O)N[C@H](C(=O)N[C@@H](CO)C(=O)N[C@H](C(=O)N[C@H](C(=O)N[C@@H](Cc1ccc(O)cc1)C(=O)N[C@@H](CC(C)C)C(=O)N1CCC[C@H]1C(=O)N[C@@H](Cc1c[nH]cn1)C(=O)N[C@@H](Cc1ccc(O)cc1)C(=O)N[C@@H](Cc1ccccc1)C(=O)N[C@@H](CC(=O)O)C(=O)N[C@@H](CC(N)=O)C(N)=O)[C@@H](C)O)[C@@H](C)O)C1CCCCC1) [peptide 12] |  |  | verified
Ac-[Chg][Cpa]VSTT[Tyr3,5-I2]LPHYFDN-NH2 (Ac-[Chg][Cpa]VSTT[Tyr(3,5-I2)]LPHYFDN-NH2; reading uncertain; also: printed as Ac-[Chg][Cpa]VSTT[Tyr3,5-I2]LPHYFDN-NH2) [peptide 6] |  |  | verified
